target: T1, METTL3/14 (Homo sapiens, UniProt Q86U44); assay: METTL3/14 methyltransferase assay (METTL3_14 RFMS, RapidFire mass spectrometry); format: biochemical; settings: 5 nM METTL3/14, 0.2 μM RNA substrate, 0.5 μM SAM; lower limit of the assay IC50=5 nM; Compounds 63-265; read-out: METTL3_14 RFMS IC50;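 further: recombinant His-tagged METTL3 with FLAG-tagged METTL14 from baculovirus, SAH product quantified by mass spectrometry against isotope-labelled internal standards, 60 min at room temperature, scaled between no-RNA and DMSO-only wells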
T1 construct: The enzyme used was full-length his-tagged METTL3; His; made in house
T1 sequence (Q86U44 whole entry): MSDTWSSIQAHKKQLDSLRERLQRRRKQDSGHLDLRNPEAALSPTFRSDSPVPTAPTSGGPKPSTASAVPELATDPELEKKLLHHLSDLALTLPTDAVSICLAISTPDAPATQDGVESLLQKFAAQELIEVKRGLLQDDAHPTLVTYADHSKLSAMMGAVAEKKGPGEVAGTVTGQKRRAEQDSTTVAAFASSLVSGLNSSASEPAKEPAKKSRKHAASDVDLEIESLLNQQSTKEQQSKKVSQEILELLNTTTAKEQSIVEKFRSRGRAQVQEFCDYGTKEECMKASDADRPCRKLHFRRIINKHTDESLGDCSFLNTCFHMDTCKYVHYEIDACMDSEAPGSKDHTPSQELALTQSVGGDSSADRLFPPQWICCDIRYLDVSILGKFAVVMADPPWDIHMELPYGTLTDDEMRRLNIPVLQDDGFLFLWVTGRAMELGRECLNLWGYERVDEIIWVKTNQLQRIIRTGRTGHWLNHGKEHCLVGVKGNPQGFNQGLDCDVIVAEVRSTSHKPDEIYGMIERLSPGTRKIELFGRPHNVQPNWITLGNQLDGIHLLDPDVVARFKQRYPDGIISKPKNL
T1 sequence (Q9HCE5 whole entry partner): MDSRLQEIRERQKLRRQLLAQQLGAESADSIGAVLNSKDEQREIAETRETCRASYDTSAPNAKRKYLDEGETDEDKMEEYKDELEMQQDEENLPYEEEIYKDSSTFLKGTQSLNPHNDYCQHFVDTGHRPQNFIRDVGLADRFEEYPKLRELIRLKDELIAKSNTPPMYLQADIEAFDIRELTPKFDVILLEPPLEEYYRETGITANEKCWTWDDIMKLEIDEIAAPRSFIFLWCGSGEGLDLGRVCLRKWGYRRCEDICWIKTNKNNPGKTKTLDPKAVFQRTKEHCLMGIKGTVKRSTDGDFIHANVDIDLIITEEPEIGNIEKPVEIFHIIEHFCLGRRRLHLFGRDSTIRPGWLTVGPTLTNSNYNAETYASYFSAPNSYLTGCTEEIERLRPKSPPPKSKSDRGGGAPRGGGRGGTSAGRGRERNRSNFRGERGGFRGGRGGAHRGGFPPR
Method: The enzyme used was full-length his-tagged METTL3 co-expressed with full length FLAG-tagged METTL14 in a baculovirus expression system. […] After termination, plates were sealed, centrifuged and stored at 4° C. until analysis. […] Mass Spectrometry Analysis RNA methyltransferase activity was measured label free using the RapidFireTM mass spectrometry (RF/MS) platform. Stopped and stable assay plates were analyzed on the Agilent RF300 integrated autosampler/solid-phase extraction (SPE) system coupled to an ABSciex 4000 mass spectrometer for the generation of the product S-adenosyl homocysteine (SAH) and normalized to the ratio of signal of the two internal product standards, respectively. Solvent A was water containing 0.1% (v/v) TCA. Solvent B was acetonitrile/0.1% ammonium acetate (8:2, v/v). More specifically, plates were centrifuged at 4350 rpm for 10 min, samples were aspirated under vacuum for 600 ms, then loaded onto a C18 solid-phase extraction cartridge and washed for 3 s with solvent A at a flow rate of 1.5 mL/min. Retained product and internal standards were eluted with solvent B at a flow rate of 1 mL/min for 3 s and finally the cartridge was reequilibrated with solvent A for 500 ms.

| IC50 | Structure (SMILES) |
| --- | --- |
| 350 nM | O=C(NCc1cn2cc(CNC3CC3)ccc2n1)c1cc(=O)n2ccccc2n1 [Compound 109, N-({6-[(cyclopropyl-amino)methyl]imidazo[1,2-a]pyridin-2-yl}methyl)-4-oxo-4H-pyrido[1,2-a] pyrimidine-2-carboxamide] |
| 102 nM | O=C(NCc1cn2cc(CNC3CC(F)(F)C3)ccc2n1)c1cc(=O)n2ccccc2n1 [Compound 110, N-[(6-{[(3,3-difluorocyclobutyl)amino]methyl}imidazo[1,2-a]pyridin-2-yl)methyl]-4-oxo-4H-pyrido[1,2-a] pyrimidine-2-carboxamide] |
| 109 nM | O=C(NCc1cn2cc(CNCC3COC3)ccc2n1)c1cc(=O)n2ccccc2n1 [Compound 111, N-{[6-({[(oxetan-3-yl)methyl]amino}methyl)imidazo[1,2-a]pyridin-2-yl]methyl}-4-oxo-4H-pyrido[1,2-a] pyrimidine-2-carboxamide] |
| 16.4 nM | CC(C)(C)CNCc1ccc2nc(CNC(=O)c3cc(=O)n4ccccc4n3)cn2c1 [Compound 113, N-[(6-{[(2,2-dimethylpropyl)amino]methyl}imidazo[1,2-a]pyridin-2-yl)methyl]-4-oxo-4H-pyrido[1,2-a] pyrimidine-2-carboxamide] |
| 43.5 nM | O=C(NCc1cn2cc(CNC3CCC(F)(F)CC3)ccc2n1)c1cc(=O)n2ccccc2n1 [Compound 115, N-[(6-{[(4,4-difluoro-cyclohexyl)amino]methyl}imidazo [1,2-a]pyridin-2-yl)methyl]-4-oxo-4H-pyrido [1,2-a]pyrimidine-2-carboxamide] |
| 83.7 nM | O=C(NCc1cn2cc(CNC[C@@H]3CCCO3)ccc2n1)c1cc(=O)n2ccccc2n1 [Compound 117, 4-oxo-N-({6-[({[(2S)-oxolan-2-yl]methyl}amino)methyl]imidazo[1,2-a]pyridin-2-yl}methyl)-4H-pyrido[1,2-a] pyrimidine-2-carboxamide] |
| 87.2 nM | O=C(NCc1cn2cc(CNC[C@H]3CCCO3)ccc2n1)c1cc(=O)n2ccccc2n1 [Compound 118, 4-oxo-N-({6-[({[(2R)-oxolan-2-yl]methyl}amino)methyl]imidazo[1,2-a]pyridin-2-yl}methyl)-4H-pyrido[1,2-a]pyrimidine-2-carboxamide] |
| 578 nM | O=C(NCc1cn2cc(CNCC(F)F)ccc2n1)c1cc(=O)n2ccccc2n1 [Compound 119, N-[(6-{[(2,2-difluoroethyl)amino]methyl}imidazo[1,2-a]pyridin-2-yl)methyl]-4-oxo-4H-pyrido[1,2-a] pyrimidine-2-carboxamide] |
| 24.7 nM | O=C(NCc1cn2cc(CNCC3CCOC3)ccc2n1)c1cc(=O)n2ccccc2n1 (centres unmarked) [Compound 120, 4-oxo-N-{[6-({[(oxolan-3-yl)methyl]amino}methyl)imidazo[1,2-a]pyridin-2-yl]methyl}-4H-pyrido [1,2-a]pyrimidine-2-carboxamide] |
| 16.8 nM | CC1(CNCc2ccc3nc(CNC(=O)c4cc(=O)n5ccccc5n4)cn3c2)CC1 [Compound 121, N-{[6-({[(1-methylcyclopropyl)methyl]amino}methyl)imidazo [1,2-a]pyridin-2-yl]methyl}-4-oxo-4H-pyrido [1,2-a]pyrimidine-2-carboxamide] |
| 110 nM | O=C(NCc1cn2cc(CNC3CCOC3)ccc2n1)c1cc(=O)n2ccccc2n1 (centres unmarked) [Compound 122, 4-oxo-N-[(6-{[(oxolan-3-yl)amino]methyl}imidazo[1,2-a]pyridin-2-yl)methyl]-4H-pyrido[1,2-a] pyrimidine-2-carboxamide] |
| 332 nM | COC(=O)C(NCc1ccc2nc(CNC(=O)c3cc(=O)n4ccccc4n3)cn2c1)C(C)C (centres unmarked) [Compound 123, methyl 3-methyl-2-[({2-[({4-oxo-4H-pyrido[1,2-a]pyrimidin-2-yl}formamido)methyl]imidazo [1,2-a]pyridin-6-yl}methyl)amino] butanoate] |
| 119 nM | O=C(NCc1cn2cc(CNC3CCCOC3)ccc2n1)c1cc(=O)n2ccccc2n1 (centres unmarked) [Compound 124, N-[(6-{[(oxan-3-yl)amino]methyl}imidazo[1,2-a]pyridin-2-yl)methyl]-4-oxo-4H-pyrido [1,2-a]pyrimidine-2-carboxamide] |
| 221 nM | O=C(NCc1cn2cc(CNC[C@H](O)C(F)(F)F)ccc2n1)c1cc(=O)n2ccccc2n1 [Compound 125, 4-oxo-N-{[6-({[(2S)-3,3,3-trifluoro-2-hydroxypropyl]amino}methyl)imidazo[1,2-a]pyridin-2-yl]methyl}-4H-pyrido[1,2-a] pyrimidine-2-carboxamide] |
| 333 nM | O=C(NCc1cn2cc(CNCCF)ccc2n1)c1cc(=O)n2ccccc2n1 [Compound 128, N-[(6-{[(2-fluoroethyl)amino]methyl}imidazo [1,2-a]pyridin-2-yl)methyl]-4-oxo-4H-pyrido[1,2-a] pyrimidine-2-carboxamide] |
| 84.3 nM | O=C(NCc1cn2cc(CN3CCC(F)(F)CC3)ccc2n1)c1cc(=O)n2ccccc2n1 [Compound 129, N-({6-[(4,4-difluoropiperidin-1-yl)methyl]imidazo [1,2-a]pyridin-2-yl}methyl)-4-oxo-4H-pyrido[1,2-a]pyrimidine-2-carboxamide] |
| 206 nM | O=C(NCc1cn2cc(CN3CCN(c4ccccc4)CC3)ccc2n1)c1cc(=O)n2ccccc2n1 [Compound 130, 4-oxo-N-({6-[(4-phenylpiperazin-1-yl)methyl]imidazo [1,2-a]pyridin-2-yl}methyl)-4H-pyrido[1,2-a] pyrimidine-2-carboxamide] |
| 87.7 nM | O=C(NCc1cn2cc(CN3CCc4ccccc4C3)ccc2n1)c1cc(=O)n2ccccc2n1 [Compound 131, 4-oxo-N-({6-[(1,2,3,4-tetrahydroisoquinolin-2-yl)methyl]imidazo [1,2-a]pyridin-2-yl}methyl)-4H-pyrido [1,2-a]pyrimidine-2-carboxamide] |
| 917 nM | CCN(CC)Cc1ccc2nc(CNC(=O)c3cc(=O)n4ccccc4n3)cn2c1 [Compound 132, N-({6-[(diethylamino)methyl]imidazo [1,2-a]pyridin-2-yl}methyl)-4-oxo-4H-pyrido[1,2-a] pyrimidine-2-carboxamide] |
| 480 nM | O=C(NCc1cn2cc(CN3CCCC3)ccc2n1)c1cc(=O)n2ccccc2n1 [Compound 133, 4-oxo-N-({6-[(pyrrolidin-1-yl)methyl]imidazo[1,2-a]pyridin-2-yl}methyl)-4H-pyrido[1,2-a] pyrimidine-2-carboxamide] |
| 440 nM | O=C(NCc1cn2cc(CN3CC(c4ccccn4)C3)ccc2n1)c1cc(=O)n2ccccc2n1 [Compound 134, 4-oxo-N-[(6-{[3-(pyridin-2-yl)azetidin-1-yl]methyl}imidazo[1,2-a]pyridin-2-yl)methyl]-4H-pyrido[1,2-a] pyrimidine-2-carboxamide] |
| 18.3 nM | O=C(NCc1cn2cc(CNC(C3CC3)C3CC3)ccc2n1)c1cc(=O)n2ccccc2n1 [Compound 135, N-[(6-{[(dicyclopropyl-methyl)amino]methyl}imidazo [1,2-a]pyridin-2-yl)methyl]-4-oxo-4H-pyrido [1,2-a]pyrimidine-2-carboxamide] |

same assay, conditions: read-out: METTL3_14 RFMS IC50

| IC50 | Structure (SMILES) |
| --- | --- |
| 280 nM | O=C(NCc1cn2cc(CNC34CC(C3)C4)ccc2n1)c1cc(=O)n2ccccc2n1 [Compound 116, N-({6-[({bicyclo[1.1.1]pentan-1-yl}amino)methyl]imidazo[1,2-a]pyridin-2-yl}methyl)-4-oxo-4H-pyrido[1,2-a] pyrimidine-2-carboxamide] |

Source: US12358915B2, “METTL3 inhibitory compounds” (STORM THERAPEUTICS LTD., priority 2019, dated 2025)
